Data from patent EP0607274B1, “3-(N-ISOPROPYL-N-n-PROPYLAMINO)-5-(N-ISOPROPYL)CARBAMOYLCHROMAN” (priority 1991, dated 1993).

Legend:
5-HT1A receptors = target: T1, 5-HT1A receptors (Rattus norvegicus, UniProt P19327); assay: 5HT1A binding assay (3H-8-OH-DPAT, rat cerebral cortex + hippocampus homogenate); settings: rat brain, 37°C, 10 minutes
T1 construct: Cerebral cortex + hippocampus from each rat was dissected and homogenized; from tissue; host or cells: rat cerebral cortex + hippocampus homogenate
T1 sequence (P19327 1-422): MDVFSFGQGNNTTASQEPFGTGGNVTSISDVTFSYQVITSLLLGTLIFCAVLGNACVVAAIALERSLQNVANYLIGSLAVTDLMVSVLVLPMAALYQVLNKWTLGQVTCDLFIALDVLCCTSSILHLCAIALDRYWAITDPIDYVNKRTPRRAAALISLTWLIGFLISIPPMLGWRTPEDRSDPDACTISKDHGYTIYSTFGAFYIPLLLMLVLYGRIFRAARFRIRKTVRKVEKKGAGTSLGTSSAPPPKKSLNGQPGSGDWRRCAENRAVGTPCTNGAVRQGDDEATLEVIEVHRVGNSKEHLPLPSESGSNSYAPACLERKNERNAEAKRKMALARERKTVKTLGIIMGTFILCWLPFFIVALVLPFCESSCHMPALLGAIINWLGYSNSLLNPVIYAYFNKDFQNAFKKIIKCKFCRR
Protocol: In order to evaluate the 5-HT-receptor stimulating effect and selectivity, the affinity for various receptors in rat brain were measured in vitro using receptor assay. The stereospecific (R)-enantiomeric compound of the invention (R)-3-(N-isopropyl-N-n-propylamino)-5-(N-isopropyl)carbamoylchroman has Ki 8.6 (nM) and the racemic compound 3-(N-isopropyl-N-n-propylamino)-5-(N-isopropyl)-carbamoylchroman has Ki 24 (nM). The Ki value for the (S)-enantiomer exceeded 1000 nM.
Method: 5HT1A binding assay. Cerebral cortex + hippocampus from each rat was dissected and homogenized in 15 ml ice-cold 50 mM Tris-HCl buffer 4.0 mM CaCl2 and 5.7 mM ascorbic acid, pH 7.5 with an Ultra-Turrax (Janke & Kunkel, Staufen, FRG) for ten s. After centrifugation for 12.5 min at 17,000 rpm (39,800 x g in a Beckman centrifuge with a chilled JA-17 rotor (Beckman, Palo Alto, CA, USA), the pellets were resuspended in the same buffer and homogenization and centrifugation repeated. To each pellet 5 ml ice-cold 0.32 M sucrose were added and homogenized for 5 sec. These samples were kept frozen at -70°C. When used they were diluted with the buffer to 8 mg tissue/ml and homogenized for 10 sec. The tissue homogenates were incubated for ten minutes at 37°C and then supplied with 10 µM pargyline followed by reincubation for 10 minutes.
The binding assay followed that described by Peroutka, J. Neurochem. 47, 529-540, (1986). The incubation mixture (2 ml) contained ^3H-8-OH-DPAT (0.25 to 8 nM), 5 mg/ml tissue homogenate in 50 mM Tris-HCl buffer containing 4.0 mM CaCl2 and 5.7 mM ascorbic acid, pH 7.5. Six different concentrations of ^3H-8-OH-DPAT were analyzed. Binding experiments were started by the addition of tissue homogenate and followed by incubation at 37°C for 10 minutes. […] The filters were washed twice with 5 ml ice-cold 50mM Tris-HCl buffer, pH 7.5, and counted with 5 ml Ready-solv HP (Beckman) in a Beckman LS 3801 scintillation counter. Non-specific binding was measured by the addition of 10 µM 5-HT to the reaction mixture. […]

[1] = Oral bioavailability in dogs (plasma AUC method, i.v. versus p.o.); assay type: in vivo; settings: dog, 10 umol/kg, plasma level measurements, 1 µmol·kg^-1 i.v. and 10 µmol·kg^-1 p.o.
Protocol: Dose-effect studies in rat following subcutaneous versus oral administration further support a high availability of the compound at the receptor after oral administration.
Method: Assessment for oral bioavailability (systemic availability) was based on the plasma area under the curve (AUC) method. An aqueous saline solution of compound of the invention was administered intravenously (i.v.) and orally (p.o.) to the animals and concentrations of the compound in plasma measured at numerous timepoints. The doses administered were 1 µmol·kg^-1 and 10 µmol·kg^-1 for intravenous and oral administration, respectively. AUC was calculated according to the trapezoidal rule. Determination of the test compound in plasma was accomplished by an HPLC method which incorporated electrochemical detection.

[2] = Temperature effects: body temperature in rats; assay type: in vivo
Protocol: Method: In each test, thirty rats, weighing approx 250 g, housed in 6 cages of 5 rats, are used. The rats have free access to food and water. Before the start of testing, they are numbered and left undisturbed for at last 1 hour. Before the administration of the compound, the body temperature of each rat is measured using a YSI 2100 tele-thermometer. The thermometer probe is inserted 10 cm into the rectum and left in pace for thirty seconds. The drug is then administered either subcutaneously or orally. In each experiment vehicle and 4 doses of drug are tested. One rat in each cage receives each treatment. The order of treatment is rotated since disturbance to the cage increases the activity of the rats, and thereby their body temperature. Thirty minutes after drug administration the rats' body temperature are measured again. The procedure is repeated 60, 90 and 120 minutes after drug administration. The resultant data on body temperature is subjected to analysis of variance. A significant group by time interaction is taken as an indication of drug effect. To obtain the minimum effective dose, the mean temperature for each of the drug treated groups are compared with that of the vehicle group at each time point using Dunnett's t-test with a level of significance of p<0.02. […]

synthesis rate of 5-HT = assay: Synthesis of 5-HT: accumulation of 5-HTP in rat brain after NSD 1015; assay type: in vivo; settings: compound given 30 min before NSD 1015
Protocol: Method: The rate of synthesis of 5-HT in the rat streatum was measured as the accumulation of 5-HTP during 30 min after inhibition of aromatic L-amino acid decarboxylase by NSD 1015 (decarboxylase inhibitor, 100 mg/kg i.p.). The test compound was administered 30 min before the NSD 1015. The regions of the brain to be examined were dissected, frozen and stored.
The levels of 5-HTP (5-hydroxytryptophan) was determined by use of high performance liquid chromatography (HPLC) with electrochemical detection according to the method of Magnusson, Nilsson and Westerlund (1980). The mobile phase was 0.1 M phosphate buffer (pH 2.5):methanol:acetonitrile-89:9:2 v/v, containing 1mM octylsulphate. The frozen samples were weighed and homogenized in 0,1 M perchloric acid, containing […] sodium bisulphite, 1 mM ethylene diamine tetraacetic acid (EDTA) and epinine as an internal standard. The supernatants were injected directly onto a Supelcosil C18 (3 µM) column, connected to a detector (ESA Coulochem 5100A), set to 0.05/0.40 V.

Compound | Ki (5-HT1A receptors) [nM] | bioavailability [1] [%] | body temperature ([2]; 1 mg/kg oral administration) | body temperature ([2]; subcutaneous administration of 0.3 mg/kg) | synthesis rate of 5-HT, measured as 5-HTP level in rat brain (synthesis rate of 5-HT; 0.2 mg/kg oral administration) | synthesis rate of 5-HT, measured as 5-HTP level in rat brain (synthesis rate of 5-HT; 0.1trig/kg subcutaneous administration)
CCCN(C(C)C)C1COc2cccc(C(=O)NC(C)C)c2C1 (racemic) [racemate, 3-(N-Isopropyl-N-n-propylamino)-5-(N-isopropyl)carbamoyl chroman] | 24 | 21 |  |  |  | 
CCCN(C(C)C)[C@H]1COc2cccc(C(=O)NC(C)C)c2C1 [(R)-enantiomer, (R)-3-(N-Isopropyl-N-n-propylamino)-5-(N-isopropyl)carbamoylchroman] | 8.6 | 17 | significant temperature decrease | significant temperature decrease | significant decrease | significant decrease
CCCN(C(C)C)[C@@H]1COc2cccc(C(=O)NC(C)C)c2C1 [(S)-enantiomer, (S)-enantiomer of 3-(N-isopropyl-N-n-propylamino)-5-(N-isopropyl)carbamoylchroman] | > 1000 |  |  |  |  | 
